The values that follow come from patent publication US4316957A, “Process for the production of 7-deazaadenosine and 7-deazainosine” (Abbott Laboratories, priority 1977, dated 1982).

A short description of one data set: Solubility. Type of data set: physicochemical.
Data set [1] has as its system Bacillus subtilis KY 4273. The experiment in a line: Antibacterial spectrum by agar dilution method (pH 7.0). Format: cell-based. An excerpt: (§1) The antibacterial spectra of 7-deazaadenosine and 7-deazainosine against various microorganisms by agar dilution method (pH 7.0) are shown in the following Table 3.
A general note: Agar dilution tests growth on a series of plates holding different concentrations.

The test system of data set [2] is Mycobacterium smegmatis KY 3848. The data set is described as above. Particulars: Mycolicibacterium smegmatis. Type of data set: cell-based.
Text: as §1

Another data set has as its system Escherichia coli KY 4271. Described as above. Format: cell-based.
Text: as §1

Data set [3] deals with Mycobacterium phlei KY 3486. Described as above. Format: cell-based. Particulars: Mycolicibacterium phlei.
Text: as §1

In data set [4] the test system is Comamonas terrigena KY 4174. Described as above. Format: cell-based.
Text: as §1

For data set [5], the system named is Pseudomonas alcaligenes KY 4656. The data set is described as above. Type of data set: cell-based. Particulars: Aquipseudomonas alcaligenes.
Text: as §1

≈ marks a conversion by molar mass, not a printed value. Like-named read-outs stand apart in the source and are kept apart here.

For orientation: MIC means the least concentration at which growth counts as inhibited. Take `Nc1ncnc2c1ccn2[C@@H]1O[C@H](CO)[C@@H](O)[C@H]1O` [7-Deazaadenosine, 7-deazaadenosine]: the Solubility entry in “Solubility” (in hexane, benzene and ether) is recorded as “insoluble”; in “Solubility” (in methanol), “poorly soluble”; in the data set “Solubility” (in water) it was “Soluble”. In addition, the minimum inhibitory concentration (MIC) in data set [1] (Bacillus subtilis, KY4273, pH 7) was 100 µg/mL (≈ 376 µM); in data set [2] (KY3848, pH 7), 20 µg/mL (≈ 75.1 µM); with Escherichia coli KY 4271 (Escherichia coli, KY4271, pH 7) it was greater than 100 µg/mL; in data set [3] (KY3486, pH 7) it was less than 0.045 µg/mL; in data set [4] (Comamonas terrigena, KY4174, pH 7), 10 µg/mL (≈ 37.6 µM); in data set [5] (KY4656, pH 7), 10 µg/mL (≈ 37.6 µM).

As for `O=c1[nH]cnc2c1ccn2[C@@H]1O[C@H](CO)[C@@H](O)[C@H]1O` [7-Deazainosine, 7-deazainosine], the Solubility entry in the data set “Solubility” (in hexane, benzene and ether) is “insoluble”; in the data set “Solubility” (in methanol) it was “poorly soluble”; in the data set “Solubility” (in water) it was “Soluble”. In addition, the MIC in data set [1] (KY4273, Bacillus subtilis KY 4273, agar dilution, pH 7.0, read-out: MIC) was greater than 100 µg/mL; in data set [2] (KY3848, Mycobacterium smegmatis KY 3848, agar dilution, pH 7.0, read-out: MIC), greater than 100 µg/mL; in the data set on Escherichia coli KY 4271 (KY4271, Escherichia coli KY 4271, agar dilution, pH 7.0, read-out: MIC), greater than 100 µg/mL; in data set [3] (KY3486, Mycobacterium phlei KY 3486, agar dilution, pH 7.0, read-out: MIC) it was less than 0.045 µg/mL; in data set [4] (KY4174, Comamonas terrigena KY 4174, agar dilution, pH 7.0, read-out: MIC) it was 40 µg/mL (≈ 150 µM); in data set [5] (KY4656, Pseudomonas alcaligenes KY 4656, agar dilution, pH 7.0, read-out: MIC), 40 µg/mL (≈ 150 µM).
